# Molecular target: T1, Polyunsaturated fatty acid 5-lipoxygenase (Homo sapiens, UniProt P09917)
# T1 sequence (P09917 whole entry): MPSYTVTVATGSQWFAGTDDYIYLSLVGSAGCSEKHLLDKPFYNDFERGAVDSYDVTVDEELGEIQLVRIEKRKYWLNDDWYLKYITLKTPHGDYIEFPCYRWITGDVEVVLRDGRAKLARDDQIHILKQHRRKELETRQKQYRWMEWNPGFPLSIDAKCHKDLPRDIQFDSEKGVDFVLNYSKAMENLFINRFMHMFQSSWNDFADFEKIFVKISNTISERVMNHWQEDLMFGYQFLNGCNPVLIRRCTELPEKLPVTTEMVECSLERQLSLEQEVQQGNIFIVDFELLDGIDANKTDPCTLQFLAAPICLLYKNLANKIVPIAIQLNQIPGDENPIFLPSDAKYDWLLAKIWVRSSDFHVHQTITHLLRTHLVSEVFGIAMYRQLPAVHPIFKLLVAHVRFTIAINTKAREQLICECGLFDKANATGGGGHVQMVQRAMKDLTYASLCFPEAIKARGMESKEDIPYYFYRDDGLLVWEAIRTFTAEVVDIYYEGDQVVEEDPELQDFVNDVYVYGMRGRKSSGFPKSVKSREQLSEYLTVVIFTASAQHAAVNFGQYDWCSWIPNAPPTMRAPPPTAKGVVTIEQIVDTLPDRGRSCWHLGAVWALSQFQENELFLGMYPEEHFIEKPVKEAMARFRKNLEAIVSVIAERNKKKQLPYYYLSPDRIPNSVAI
# Assay: Inhibition of human 5-LOX using arachidonic acid as substrate measured as H2DCFDA conversion to 2',7'-dichlorofluorescein preincubated for 10 mins by fluorescence spectrophotometric analysis
row,SMILES,IC50 [µM]
1,O=[N+]([O-])c1ccc2c(c1)S(=O)(=O)N=C2Nc1ccccc1,8.6
2,COc1ccc(NC2=NS(=O)(=O)c3cc([N+](=O)[O-])ccc32)cc1OC,23.5
3,O=[N+]([O-])c1ccc2c(c1)S(=O)(=O)N=C2NCc1cccc(Br)c1,> 50
4,O=[N+]([O-])c1ccc2c(c1)S(=O)(=O)N=C2Nc1cccc2ccccc12,0.6
5,Cc1ccccc1NC1=NS(=O)(=O)c2cc([N+](=O)[O-])ccc21,> 50
6,O=[N+]([O-])c1ccc2c(c1)S(=O)(=O)N=C2Nc1cccc(-c2ccccc2)c1,0.7
7,O=[N+]([O-])c1ccc2c(c1)S(=O)(=O)N=C2Nc1cccc2ncccc12,> 50
8,O=[N+]([O-])c1ccc2c(c1)S(=O)(=O)N=C2Nc1cccc2c(Br)cccc12,> 50
9,O=[N+]([O-])c1ccc2c(c1)S(=O)(=O)N=C2Nc1cccc2c1OCO2,14.9

# The next lines start with the values.
row,IC50 [µM],SMILES
1,> 50,O=[N+]([O-])c1ccc2c(c1)S(=O)(=O)N=C2Nc1cccc(Cl)c1
2,3.4,O=[N+]([O-])c1ccc2c(c1)S(=O)(=O)N=C2Nc1cccc(Br)c1
3,12.3,COc1ccc(NC2=NS(=O)(=O)c3cc([N+](=O)[O-])ccc32)cc1
4,0.25,CC(C)c1cccc(NC2=NS(=O)(=O)c3cc([N+](=O)[O-])ccc32)c1
5,0.06,CC(C)(C)c1cccc(NC2=NS(=O)(=O)c3cc([N+](=O)[O-])ccc32)c1
6,0.24,COc1cccc(NC2=NS(=O)(=O)c3cc([N+](=O)[O-])ccc32)c1

# Molecular target: T2, Prostaglandin E synthase (Homo sapiens, UniProt O14684)
# T2 sequence (O14684 whole entry): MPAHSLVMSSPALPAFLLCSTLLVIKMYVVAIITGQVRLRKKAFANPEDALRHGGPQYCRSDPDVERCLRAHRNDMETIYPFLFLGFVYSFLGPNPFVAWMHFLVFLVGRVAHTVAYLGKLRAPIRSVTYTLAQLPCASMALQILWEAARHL
# Assay: Inhibition of microsomal PGES-1 (unknown origin) assessed as PGH2 conversion to PGE2 after 1 min by enzyme immunoassay
row,SMILES,IC50 [µM]
1,O=[N+]([O-])c1ccc2c(c1)S(=O)(=O)N=C2Nc1ccccc1,23.6
2,COc1ccc(NC2=NS(=O)(=O)c3cc([N+](=O)[O-])ccc32)cc1OC,> 50
3,O=[N+]([O-])c1ccc2c(c1)S(=O)(=O)N=C2NCc1cccc(Br)c1,> 50
4,O=[N+]([O-])c1ccc2c(c1)S(=O)(=O)N=C2Nc1cccc2ccccc12,2.1
5,Cc1ccccc1NC1=NS(=O)(=O)c2cc([N+](=O)[O-])ccc21,> 50
6,O=[N+]([O-])c1ccc2c(c1)S(=O)(=O)N=C2Nc1cccc(-c2ccccc2)c1,> 50
7,O=[N+]([O-])c1ccc2c(c1)S(=O)(=O)N=C2Nc1cccc2ncccc12,0.15
8,O=[N+]([O-])c1ccc2c(c1)S(=O)(=O)N=C2Nc1cccc2c(Br)cccc12,> 50
9,O=[N+]([O-])c1ccc2c(c1)S(=O)(=O)N=C2Nc1cccc2c1OCO2,> 50

# Now from value to molecule:
row,IC50 [µM],SMILES
1,5.7,O=[N+]([O-])c1ccc2c(c1)S(=O)(=O)N=C2Nc1cccc(Cl)c1
2,7.3,O=[N+]([O-])c1ccc2c(c1)S(=O)(=O)N=C2Nc1cccc(Br)c1
3,16.9,COc1ccc(NC2=NS(=O)(=O)c3cc([N+](=O)[O-])ccc32)cc1
4,> 50,CC(C)c1cccc(NC2=NS(=O)(=O)c3cc([N+](=O)[O-])ccc32)c1
5,> 50,CC(C)(C)c1cccc(NC2=NS(=O)(=O)c3cc([N+](=O)[O-])ccc32)c1
6,8.8,COc1cccc(NC2=NS(=O)(=O)c3cc([N+](=O)[O-])ccc32)c1

# Source: ChEMBL document CHEMBL3286363, “Benzo[d]isothiazole 1,1-dioxide derivatives as dual functional inhibitors of 5-lipoxygenase and microsomal prostaglandin E(2) synthase-1” (Bioorg Med Chem Lett, 2014)
